Experimental data reported in ChEMBL document CHEMBL5465560, “Selectivity Literature for EUbOPEN Chemogenomic Library” (2024).
pIC50: −log10 of the molar value. One block for each compound: values may come before it.

Key:
[1] = molecular target: CDK4/Cyclin D3 (Homo sapiens) (UniProt P11802+P30281); experiment: (§1) Selectivity interaction (Rxn Biology Kinase assay) EUB0001632a CDK4; assay type: protein-complex assay; conditions: at 10 µM
[2] = molecular target: Cyclin-dependent kinase 4/cyclin D1 (Homo sapiens) (UniProt P11802+P24385); experiment: as §1; assay type: protein-complex assay; conditions: at 10 µM
[3] = molecular target: Tyrosine-protein kinase Fes/Fps (Homo sapiens) (UniProt P07332); experiment: Selectivity interaction (Upstate Kinase Profiler service (Millipore)) EUB0000056c FES; conditions: at 1 µM
[4] = molecular target: Serine/threonine-protein kinase N2 (Homo sapiens, UniProt Q16513); conditions: at 10 µM
Sequence of Serine/threonine-protein kinase N2 (Q16513 whole entry, looked up): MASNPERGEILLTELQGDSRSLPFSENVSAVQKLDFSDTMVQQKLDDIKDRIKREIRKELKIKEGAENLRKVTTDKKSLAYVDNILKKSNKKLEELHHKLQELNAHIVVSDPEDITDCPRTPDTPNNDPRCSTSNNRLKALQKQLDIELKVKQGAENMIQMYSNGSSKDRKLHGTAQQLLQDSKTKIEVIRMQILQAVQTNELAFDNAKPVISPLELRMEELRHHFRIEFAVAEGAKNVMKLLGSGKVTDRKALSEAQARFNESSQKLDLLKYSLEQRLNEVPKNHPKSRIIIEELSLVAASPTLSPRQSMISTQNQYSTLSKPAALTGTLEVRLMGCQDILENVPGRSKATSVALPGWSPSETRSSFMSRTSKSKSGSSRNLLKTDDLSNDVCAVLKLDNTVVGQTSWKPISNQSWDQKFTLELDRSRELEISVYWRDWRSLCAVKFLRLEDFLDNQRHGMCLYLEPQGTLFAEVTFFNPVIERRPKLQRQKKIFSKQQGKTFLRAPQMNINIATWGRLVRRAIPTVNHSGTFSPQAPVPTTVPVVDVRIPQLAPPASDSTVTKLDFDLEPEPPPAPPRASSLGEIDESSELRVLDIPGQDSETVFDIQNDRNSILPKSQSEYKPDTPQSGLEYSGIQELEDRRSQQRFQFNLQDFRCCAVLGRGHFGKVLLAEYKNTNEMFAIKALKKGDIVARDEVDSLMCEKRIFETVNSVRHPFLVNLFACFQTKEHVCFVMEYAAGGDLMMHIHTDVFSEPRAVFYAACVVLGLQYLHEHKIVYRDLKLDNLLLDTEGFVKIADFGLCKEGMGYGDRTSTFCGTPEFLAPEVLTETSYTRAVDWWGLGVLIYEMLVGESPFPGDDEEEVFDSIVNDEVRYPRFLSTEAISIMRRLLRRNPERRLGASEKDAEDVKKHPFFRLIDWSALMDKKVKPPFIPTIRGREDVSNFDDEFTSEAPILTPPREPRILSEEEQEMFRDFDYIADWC

[5] = molecular target: Mitogen-activated protein kinase kinase kinase 11 (Homo sapiens) (UniProt Q16584); experiment: Selectivity interaction (ActivX KiNativ screen (kinase selectivity in THP-1 cell lysates)) EUB0000639a MAP3K11; assay type: subcellular; conditions: lysate, at 0.04 µM
[6] = molecular target: Tyrosine-protein kinase Fer (Homo sapiens) (UniProt P16591); experiment: Selectivity interaction (ActivX KiNativ screen (kinase selectivity in THP-1 cell lysates)) EUB0000639a FER; assay type: subcellular; conditions: lysate, at 1 µM
Sequence of Tyrosine-protein kinase Fer (Homo sapiens) (P16591 whole entry, looked up): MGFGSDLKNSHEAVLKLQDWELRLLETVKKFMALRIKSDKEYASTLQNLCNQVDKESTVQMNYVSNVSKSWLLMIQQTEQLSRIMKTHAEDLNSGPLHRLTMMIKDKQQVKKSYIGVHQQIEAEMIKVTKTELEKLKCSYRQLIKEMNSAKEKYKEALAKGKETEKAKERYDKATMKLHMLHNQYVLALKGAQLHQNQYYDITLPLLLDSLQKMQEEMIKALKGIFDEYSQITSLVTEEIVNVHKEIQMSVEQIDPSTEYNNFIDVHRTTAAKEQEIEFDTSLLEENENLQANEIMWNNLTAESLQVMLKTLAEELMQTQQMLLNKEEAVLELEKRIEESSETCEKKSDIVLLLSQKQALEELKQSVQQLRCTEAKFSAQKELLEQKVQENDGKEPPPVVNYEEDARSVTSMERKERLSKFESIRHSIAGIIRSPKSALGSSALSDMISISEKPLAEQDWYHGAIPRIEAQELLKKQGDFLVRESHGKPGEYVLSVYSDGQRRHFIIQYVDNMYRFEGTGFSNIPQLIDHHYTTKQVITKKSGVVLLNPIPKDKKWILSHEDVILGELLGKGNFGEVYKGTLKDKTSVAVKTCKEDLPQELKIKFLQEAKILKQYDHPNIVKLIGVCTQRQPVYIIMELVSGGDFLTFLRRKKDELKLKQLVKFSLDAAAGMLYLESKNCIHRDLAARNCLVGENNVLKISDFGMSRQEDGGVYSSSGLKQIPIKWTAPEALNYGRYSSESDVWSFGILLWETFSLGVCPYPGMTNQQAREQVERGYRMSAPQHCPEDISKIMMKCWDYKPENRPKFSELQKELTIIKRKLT

[7] = molecular target: Ribosomal protein S6 kinase beta-1 (Homo sapiens, UniProt P23443); experiment: Selectivity interaction (KinomeScan (DiscoverX)) EUB0001049a RPS6KB1; conditions: at 1 µM
[8] = molecular target: Protein kinase C beta type (Homo sapiens, UniProt P05771)
[9] = molecular target: Bromodomain adjacent to zinc finger domain protein 2B (Homo sapiens) (UniProt Q9UIF8); experiment: Selectivity interaction (Bromodomain panel (DSF asssay)) EUB0000270b BAZ2B
Sequence of Bromodomain adjacent to zinc finger domain protein 2B (Homo sapiens) (Q9UIF8 whole entry, the tested form may be a part): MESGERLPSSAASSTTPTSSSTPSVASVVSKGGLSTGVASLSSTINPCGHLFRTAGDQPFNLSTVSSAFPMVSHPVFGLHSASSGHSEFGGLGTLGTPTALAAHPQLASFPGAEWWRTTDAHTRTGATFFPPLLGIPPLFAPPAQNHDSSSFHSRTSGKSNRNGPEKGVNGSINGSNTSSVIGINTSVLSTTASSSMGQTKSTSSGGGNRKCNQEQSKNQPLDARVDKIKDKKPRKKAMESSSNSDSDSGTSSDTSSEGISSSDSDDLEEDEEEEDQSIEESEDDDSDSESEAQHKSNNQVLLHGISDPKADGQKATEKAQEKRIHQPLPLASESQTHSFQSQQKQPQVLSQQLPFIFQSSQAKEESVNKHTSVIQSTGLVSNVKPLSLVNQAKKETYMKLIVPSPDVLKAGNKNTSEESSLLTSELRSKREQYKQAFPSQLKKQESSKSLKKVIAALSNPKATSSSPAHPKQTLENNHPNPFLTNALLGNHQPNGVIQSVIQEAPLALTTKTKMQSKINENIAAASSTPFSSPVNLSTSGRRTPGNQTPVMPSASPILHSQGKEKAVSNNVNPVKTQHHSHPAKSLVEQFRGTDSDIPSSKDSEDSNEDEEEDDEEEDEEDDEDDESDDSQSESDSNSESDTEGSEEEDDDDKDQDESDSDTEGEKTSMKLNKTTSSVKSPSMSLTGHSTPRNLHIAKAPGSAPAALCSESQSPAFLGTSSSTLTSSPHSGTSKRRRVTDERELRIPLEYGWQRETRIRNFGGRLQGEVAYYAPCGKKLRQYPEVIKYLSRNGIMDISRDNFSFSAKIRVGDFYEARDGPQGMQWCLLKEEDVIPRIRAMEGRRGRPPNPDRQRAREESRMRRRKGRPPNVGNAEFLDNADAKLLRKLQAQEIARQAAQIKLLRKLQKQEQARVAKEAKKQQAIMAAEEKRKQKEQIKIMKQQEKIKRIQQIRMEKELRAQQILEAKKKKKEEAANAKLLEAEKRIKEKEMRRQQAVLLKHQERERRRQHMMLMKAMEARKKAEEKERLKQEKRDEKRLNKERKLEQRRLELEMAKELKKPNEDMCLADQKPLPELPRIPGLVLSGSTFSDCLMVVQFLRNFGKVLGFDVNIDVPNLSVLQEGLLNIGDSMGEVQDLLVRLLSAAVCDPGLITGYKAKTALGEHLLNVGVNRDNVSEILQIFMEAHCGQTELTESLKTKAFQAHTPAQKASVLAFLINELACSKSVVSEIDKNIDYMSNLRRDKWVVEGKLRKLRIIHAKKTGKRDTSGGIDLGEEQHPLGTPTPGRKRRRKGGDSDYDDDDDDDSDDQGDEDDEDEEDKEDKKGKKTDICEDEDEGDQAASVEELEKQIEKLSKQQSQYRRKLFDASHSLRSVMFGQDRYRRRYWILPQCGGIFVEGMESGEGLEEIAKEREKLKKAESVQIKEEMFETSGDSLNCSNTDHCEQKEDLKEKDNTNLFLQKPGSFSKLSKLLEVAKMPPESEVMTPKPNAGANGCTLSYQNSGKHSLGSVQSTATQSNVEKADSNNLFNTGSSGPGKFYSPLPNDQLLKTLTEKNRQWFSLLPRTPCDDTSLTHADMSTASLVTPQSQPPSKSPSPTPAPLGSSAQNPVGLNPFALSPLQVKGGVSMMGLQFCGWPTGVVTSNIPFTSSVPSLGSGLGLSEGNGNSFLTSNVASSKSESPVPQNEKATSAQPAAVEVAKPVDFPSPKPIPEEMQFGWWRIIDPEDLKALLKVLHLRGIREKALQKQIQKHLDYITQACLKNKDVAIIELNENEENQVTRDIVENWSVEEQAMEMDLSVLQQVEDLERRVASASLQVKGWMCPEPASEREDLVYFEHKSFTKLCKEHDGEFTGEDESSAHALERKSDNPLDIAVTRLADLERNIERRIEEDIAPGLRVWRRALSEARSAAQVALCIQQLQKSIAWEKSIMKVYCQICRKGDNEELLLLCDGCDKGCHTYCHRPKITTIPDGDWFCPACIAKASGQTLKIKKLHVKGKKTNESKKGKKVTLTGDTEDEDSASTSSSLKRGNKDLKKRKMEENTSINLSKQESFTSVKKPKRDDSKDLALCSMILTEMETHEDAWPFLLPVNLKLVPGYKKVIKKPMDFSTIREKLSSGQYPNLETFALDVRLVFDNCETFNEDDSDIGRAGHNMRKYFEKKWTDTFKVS

[10] = molecular target: Serine/threonine-protein kinase PAK 2 (Homo sapiens) (UniProt Q13177); experiment: Selectivity interaction (KinomeScan (DiscoverX)) EUB0000092b PAK2; conditions: at 10 µM
Sequence of Serine/threonine-protein kinase PAK 2 (Homo sapiens) (Q13177 whole entry): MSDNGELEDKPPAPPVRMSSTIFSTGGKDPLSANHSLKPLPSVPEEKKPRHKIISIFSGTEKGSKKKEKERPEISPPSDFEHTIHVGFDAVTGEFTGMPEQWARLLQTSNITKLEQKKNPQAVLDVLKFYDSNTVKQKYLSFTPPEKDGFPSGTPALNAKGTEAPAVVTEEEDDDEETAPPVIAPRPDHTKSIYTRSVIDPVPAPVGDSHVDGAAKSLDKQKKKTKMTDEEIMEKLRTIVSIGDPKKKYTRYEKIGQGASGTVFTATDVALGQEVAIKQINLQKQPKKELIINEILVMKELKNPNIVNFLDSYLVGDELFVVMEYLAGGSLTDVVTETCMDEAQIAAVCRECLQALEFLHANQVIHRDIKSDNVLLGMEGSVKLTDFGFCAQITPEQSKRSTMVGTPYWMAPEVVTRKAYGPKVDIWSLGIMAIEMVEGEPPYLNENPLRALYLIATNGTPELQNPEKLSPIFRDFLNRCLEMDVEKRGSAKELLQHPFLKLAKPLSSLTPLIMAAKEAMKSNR

[11] = tested on: T1, Receptor-type tyrosine-protein kinase FLT3 (Homo sapiens), P36888 [R834Q]; conditions: at 10 µM
T1 sequence (whole entry): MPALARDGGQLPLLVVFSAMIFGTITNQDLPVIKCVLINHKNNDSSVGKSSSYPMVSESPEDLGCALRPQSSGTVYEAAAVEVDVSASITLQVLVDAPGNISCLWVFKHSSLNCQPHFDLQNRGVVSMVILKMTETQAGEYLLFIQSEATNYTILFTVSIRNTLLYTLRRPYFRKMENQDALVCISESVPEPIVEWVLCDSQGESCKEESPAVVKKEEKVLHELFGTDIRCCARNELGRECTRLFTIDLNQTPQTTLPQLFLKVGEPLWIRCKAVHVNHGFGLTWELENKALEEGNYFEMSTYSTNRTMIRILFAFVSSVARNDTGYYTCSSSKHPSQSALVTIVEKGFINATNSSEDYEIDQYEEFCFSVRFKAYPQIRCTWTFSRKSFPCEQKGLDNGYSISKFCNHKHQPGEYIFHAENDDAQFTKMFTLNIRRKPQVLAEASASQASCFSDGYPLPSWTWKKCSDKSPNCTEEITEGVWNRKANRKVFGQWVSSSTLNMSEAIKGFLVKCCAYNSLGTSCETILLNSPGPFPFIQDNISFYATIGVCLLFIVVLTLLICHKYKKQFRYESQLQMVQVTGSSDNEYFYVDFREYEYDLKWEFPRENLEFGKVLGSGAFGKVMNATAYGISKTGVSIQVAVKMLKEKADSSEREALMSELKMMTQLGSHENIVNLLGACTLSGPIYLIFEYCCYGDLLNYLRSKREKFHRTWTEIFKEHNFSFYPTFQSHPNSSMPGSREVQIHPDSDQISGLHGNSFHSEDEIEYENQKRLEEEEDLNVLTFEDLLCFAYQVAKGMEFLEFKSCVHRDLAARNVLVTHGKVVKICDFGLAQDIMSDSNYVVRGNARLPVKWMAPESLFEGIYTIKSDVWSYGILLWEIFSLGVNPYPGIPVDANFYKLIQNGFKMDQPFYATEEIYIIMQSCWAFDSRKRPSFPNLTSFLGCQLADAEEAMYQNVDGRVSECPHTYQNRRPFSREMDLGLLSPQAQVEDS

[12] = molecular target: RAC-beta serine/threonine-protein kinase (Homo sapiens) (UniProt P31751); experiment: Selectivity interaction (KinomeScan (DiscoverX)) EUB0000618a AKT2; conditions: at 10 µM
Sequence of RAC-beta serine/threonine-protein kinase (Homo sapiens) (P31751 whole entry): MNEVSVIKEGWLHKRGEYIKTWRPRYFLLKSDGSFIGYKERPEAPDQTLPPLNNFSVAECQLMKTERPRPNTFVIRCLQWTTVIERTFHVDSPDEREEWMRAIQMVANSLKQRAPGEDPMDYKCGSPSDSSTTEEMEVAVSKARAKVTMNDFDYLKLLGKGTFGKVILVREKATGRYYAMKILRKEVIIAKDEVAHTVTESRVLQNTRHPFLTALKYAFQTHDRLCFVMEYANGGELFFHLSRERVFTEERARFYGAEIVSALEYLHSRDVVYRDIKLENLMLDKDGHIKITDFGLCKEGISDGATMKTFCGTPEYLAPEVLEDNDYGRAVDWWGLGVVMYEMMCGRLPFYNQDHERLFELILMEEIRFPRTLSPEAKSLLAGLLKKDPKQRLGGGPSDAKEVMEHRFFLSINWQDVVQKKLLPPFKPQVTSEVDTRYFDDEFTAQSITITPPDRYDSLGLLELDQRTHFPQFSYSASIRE

[13] = molecular target: T2, Myotonin-protein kinase (Homo sapiens) (UniProt Q09013); experiment: Selectivity interaction (KinomeScan (DiscoverX)) EUB0001619a DMPK; conditions: at 1 µM
T2 sequence (whole entry): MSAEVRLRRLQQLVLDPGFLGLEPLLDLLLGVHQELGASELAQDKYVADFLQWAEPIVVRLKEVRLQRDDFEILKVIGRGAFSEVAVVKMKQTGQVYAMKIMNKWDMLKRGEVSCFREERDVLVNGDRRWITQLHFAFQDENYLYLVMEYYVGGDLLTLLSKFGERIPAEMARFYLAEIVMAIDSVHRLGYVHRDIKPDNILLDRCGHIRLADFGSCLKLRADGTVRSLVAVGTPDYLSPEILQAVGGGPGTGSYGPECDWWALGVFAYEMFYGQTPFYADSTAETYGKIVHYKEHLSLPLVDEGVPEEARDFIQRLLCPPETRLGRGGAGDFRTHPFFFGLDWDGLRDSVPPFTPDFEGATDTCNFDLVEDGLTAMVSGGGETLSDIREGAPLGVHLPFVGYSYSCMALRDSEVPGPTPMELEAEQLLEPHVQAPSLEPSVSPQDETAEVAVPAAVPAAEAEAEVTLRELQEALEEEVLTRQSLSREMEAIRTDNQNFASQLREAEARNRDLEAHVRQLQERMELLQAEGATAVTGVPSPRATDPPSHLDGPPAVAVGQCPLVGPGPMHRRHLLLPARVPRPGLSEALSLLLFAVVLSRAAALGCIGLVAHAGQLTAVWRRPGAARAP

% of inhibition [1]: 46.3% | % of inhibition [2]: 46.7%
Compound: Cn1cc(-n2cnc3c(NCc4nc5cc(Cl)c(Cl)cc5[nH]4)nc(N4CCOCC4)nc32)cn1

% of inhibition [3]: -3%
Compound: Cc1ccc(-c2ccc3c(ccc4sc5c(c43)NC[C@@H](C)NC5=O)n2)cn1

% of control [4]: 100%
Compound: CCN(CC)CCCCNc1ncc2cc(-c3cc(OC)cc(OC)c3)c(NC(=O)NC(C)(C)C)nc2n1

% of inhibition [5]: -8.9% | % of inhibition [6]: -8.9%
Compound: CC[C@@H]1[C@H](F)C(=O)N[C@@H]1COc1nccc2cc(C(N)=O)c(OC)cc12 [ZIMLOVISERTIB]

Compound: COc1cc(Nc2nc(C)cc(-c3cnn4nc(OC)ccc34)n2)cc(C(F)(F)F)c1
% of control [7]: 87%

pIC50 [8]: < 5.00
Compound: CCc1cccc(CC)c1NC(=O)c1nn(C)c2c1CCc1cnc(Nc3ccc(C(=O)NC4CCN(C)CC4)cc3OC(F)(F)F)nc1-2

dTM [9]: -0.9 K
Compound: Cc1cc(CN)cc(C)c1-c1ncn(C)c1-c1cncn1C

Compound: CCC(=O)N1CCN(c2ccc(-n3c(=O)ccc4cnc5ccc(-c6cnc7ccccc7c6)cc5c43)cc2C(F)(F)F)CC1
% of control [10]: 100%

Compound: Cc1cc([C@@H](C)Nc2ccccc2C(=O)O)c2nc(N3CCOCC3)cc(=O)n2c1 [AZD-6482]
% of control [11]: 94%

Compound: O[C@H]1CC[C@H](Nc2ncc3nc(Nc4c(F)cc(F)cc4F)n([C@H]4CCOC4)c3n2)CC1
% of control [12]: 100%

Compound: N#Cc1cccc(-c2c[nH]c3ncnc(N4CCOCC4)c23)c1
% of control [13]: 87%
